Experimental data taken from ChEMBL document CHEMBL3886569, “Substituted isoquinolines as CRTH2 receptor modulators” (2016).

target: T1, Prostaglandin D2 receptor 2 (Homo sapiens, UniProt Q9Y5Y4); experiment: Radioligand Binding Assay: Radioligand binding was performed using filtration or scintillation proximity assay (SPA) technology. SPA assays were done at room temperature in 10 mM HEPES pH 7.4, 1 mM EDTA containing 2 mM MnCl2 and 16 nM [3H]-PGD2 (PerkinElmer, Waltham, Mass.) (164 Ci mmol-1), in a final volume of 0.05 mL. Competing ligands were diluted in dimethylsulfoxide and added using very low volumes (500 nL). The reaction was initiated by the addition of a mixture of 3.52 ug of membrane protein prepared from a human embryonic kidney (HEK)-hCRTH2 cell line adhered to 140 ug of wheatgerm agglutinin SPA beads (PerkinElmer). Total and non-specific binding were determined in the absence and the presence of a CRTH2 antagonist, respectively. The reaction was routinely conducted for 60 minutes at room temperature followed by centrifugation for 5 minutes at 1000 RPM. The radioactivity was measured with a TopCountNXT (PerkinElmer). Filtration binding assays were done in a similar way with minor differences. The assay volume was 0.20 mL and competing ligands in dimethylsulfoxide were added in 2 uL. [3H]-PGD2 was used at 0.6 nM, and reactions were initiated by the addition of 10 ug of membrane protein. Reactions were terminated by filtration through GF/C filter plates (PerkinElmer) presoaked in 10 mM HEPES. After washing with buffer, plates were dried in a 50° C. oven for 1 h, scintillation cocktail was added and radioactivity was measured. Results determined using the SPA-based assay were similar to those from the filtration binding assay.
T1 sequence (Q9Y5Y4 whole entry): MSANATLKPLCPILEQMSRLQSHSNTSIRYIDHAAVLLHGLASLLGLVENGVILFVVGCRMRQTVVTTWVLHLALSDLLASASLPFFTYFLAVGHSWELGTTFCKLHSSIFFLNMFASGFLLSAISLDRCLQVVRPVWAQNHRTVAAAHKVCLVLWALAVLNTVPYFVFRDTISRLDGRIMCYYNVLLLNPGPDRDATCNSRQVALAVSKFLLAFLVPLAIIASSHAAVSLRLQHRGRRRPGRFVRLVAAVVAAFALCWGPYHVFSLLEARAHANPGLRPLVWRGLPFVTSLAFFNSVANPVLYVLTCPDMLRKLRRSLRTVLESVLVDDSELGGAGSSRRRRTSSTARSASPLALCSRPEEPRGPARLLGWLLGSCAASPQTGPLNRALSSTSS

Ki [nM]	SMILES
21.5	O=C(O)CCCCc1cc2cc(-c3noc(C4Cc5ccccc5C4)n3)ccc2c(=O)n1-c1ccc(F)cc1
10.9	O=C(CCCCc1cc2cc(C(=O)N[C@@H]3CCCc4cc(F)ccc43)ccc2c(=O)n1-c1ccc(F)cc1)NS(=O)(=O)C1CC1
25.4	CC1(c2nc3ccc(F)cc3o2)CC(c2ccc3c(=O)n(-c4ccc(F)cc4)c(CCCCC(=O)O)cc3c2)=NO1 (stereo not given)
7.79	O=C(O)CCCCc1cc2cc(-c3noc(Cc4ccc(F)cc4)n3)ccc2c(=O)n1-c1ccc(F)cc1
79.1	CC1(c2nc3ccc(F)cc3o2)CC(c2ccc3c(=O)n(-c4ccc(F)cc4)c(CCCCC(=O)O)c(Cl)c3c2)=NO1 (stereo not given)
